{
  "source": "patent US11104965B2",
  "about": "“Methods for the diagnosis and treatment of inflammatory bowel disease” (priority 2013, dated 2021)",
  "key": {"[1]": {"system": "GALT foci of II10−/− mice", "test": "Number of GALT foci in II10-/- mice associated with A. parvulum, SPF conditions", "type": "in vivo, mouse", "settings": "Atopobium-associated II10-/- mice under SPF conditions; FIG. 4C", "procedure": "(§1) Statistical significance was assessed using a Kruskal-Wallis test with a Dunn's post hoc test.\n(§2) To test the causative role of H2S-producing microbes in colitis, we assessed whether an H2S scavenger (bismuth) could alleviate Atopobium-induced colitis in II10^−/− mice. […] It should be noted that the intestines of IBD patients also display a similar increased number of lymphoid follicles^15. […] Increased GALT foci in Atopobium-associated mice could lead to an aberrant expression of lymphoid adhesion molecules and unwanted T cell activation towards commensal microbes. To assess the role of these commensal microbes in colitis development, germ-free mice were mono-associated with A. parvulum and kept under gnotobiotic conditions.\n(§3) To investigate involvement of complex biota and H2S in the development of colitis, we performed two subsequent experiments using 129/SvEv II-10^−/− mice. […] Mice were euthanized after 6 weeks of mono-association. […] Mice were fed with this diet starting 1 week before the colonization with A. parvulum. […] Mice were euthanized after 6 weeks of weekly infection with A. parvulum. […]\n(§4) All animal protocols were approved by the Institutional Animal Care and Use Committee of the University of North Carolina at Chapel Hill. […] Histological images were acquired using a DP71 camera and DP Controller 3.1.1.276 (Olympus), and intestinal inflammation was scored as previously described^12. […]"}, "A. parvulum": {"system": "A. parvulum", "test": "A. parvulum colonization level in stool of mono-associated II10-/- mice by real-time qPCR", "type": "in vivo, Atopobium parvulum", "settings": "6 weeks, P=0.0001, FIG. 12B", "procedure": "Statistical significance was assessed using a Mann-Whitney U-test.\nas §2\nTo investigate involvement of complex biota and H2S in the development of colitis, we performed two subsequent experiments using 129/SvEv II-10^−/− mice. […] Mice were euthanized after 6 weeks of mono-association. […] Mice were fed with this diet starting 1 week before the colonization with A. parvulum. […] Mice were euthanized after 6 weeks of weekly infection with A. parvulum. […] Mice were fed with this diet starting 1 week before the colonization with A. parvulum."}, "[2]": {"system": "gut microbiota of II10−/− mice", "test": "Gut microbiota composition of SPF and Atopobium-associated II10-/- mice, treated or not with bismuth (PCA, Table 6)", "type": "in vivo, mouse", "excerpt": "To assess the role of these commensal microbes in colitis development, germ-free mice were mono-associated with A. parvulum and kept under gnotobiotic conditions. […] FIG. 12B). […] GF+bismuth (III) subsalicylate (n=10); 3: […] A. parvulum+bismuth (III) subsalicylate (n=11). Mice were euthanized after 6 weeks of mono-association. […] Mice were fed with this diet starting 1 week before the colonization with A. parvulum. […] SPF+bismuth (III) subsalicylate (n=8); 3: […] A. parvulum+bismuth (III) subsalicylate (n=8). Mice were euthanized after 6 weeks of weekly infection with A. parvulum. […] Mice were fed with this diet starting 1 week before the colonization with A. parvulum."}, "[3]": {"system": "Atopobium-induced colitis in II10−/− mice", "test": "Atopobium-induced colitis in II10-/- mice under SPF conditions, treated or not with bismuth (colonoscopy, blinded histological inflammation score)", "type": "in vivo, mouse", "settings": "A. parvulum-associated II10-/- mice, 6 weeks", "excerpt": "as §2\nColonic mucosal lavages and/or mucosal biopsies were collected from 157 pediatric subjects (84 Crohn's Disease, 20 Ulcerative Colitis, and 53 controls). […] Reads were quality filtered and QIIME ^23 was used to assign reads into operational taxonomic units (OTUs) against the Greengenes reference set. […] The generated raw data was processed and analyzed by MaxQuant against the decoy Uniport-human database with the protein-group file imported into Persus for statistical analysis. […] The transcript levels of TST, SQRDL and COX4-1 were quantified by RT-qPCR. […] Mouse colonoscopies were performed and histological inflammation was blindly scored as previously described ^25. Mice mucosal cytokines (Cxcl1, II12p40, II1β and II17a) were quantified by RT-qPCR. […]"}, "[4]": {"system": "GALT foci of II10−/− mice", "test": "Number of GALT foci in II10-/- mice mono-associated with A. parvulum, gnotobiotic conditions", "type": "in vivo, mouse", "settings": "germ-free II10-/- mice mono-associated with A. parvulum, FIG. 4C", "procedure": "as §1, §2, §3, §4"}},
  "data": [
    {"compound": "O=C([O-])c1ccccc1[O-].[Bi+3].[OH-]", "note": "[bismuth, Bismuth (III) subsalicylate]", "values": [
      {"measurement": "GALT formation (number of GALT foci)", "setting": "[1]", "value": "did not prevent GALT formation"},
      {"measurement": "A. parvulum colonization level (16S rDNA gene copies per mg of stool)", "setting": "A. parvulum", "value": "reduced colonization level"},
      {"measurement": "microbiota of Atopobium-associated mice, abundance of butyrate-producers", "setting": "[2]; Atopobium-associated II10-/- mice, SPF", "value": "restores the microbiota of these mice toward a healthier community"},
      {"measurement": "microbiota composition", "setting": "[2]; SPF and Atopobium-associated II10-/- mice, Table 6", "value": "altered the microbiota composition"},
      {"measurement": "inflammatory score", "setting": "[3]; bismuth 7 g/kg in chow, P=0.007, FIG. 4B", "value": "decrease inflammatory score"},
      {"measurement": "colitis as evidenced by colonoscopy visualization", "setting": "[3]; bismuth (III) subsalicylate 7 g/kg in chow, FIG. 4A", "value": "prevented colitis"},
      {"measurement": "GALT neogenesis", "setting": "[4]", "value": "prevented GALT neogenesis"}
    ]}
  ]
}
